Ends that are not written are not given here.
Experiments:
[1] = test system: Human SH-SY5Y neuroblastoma; assay: Clozapine-induced cell death in SH-SY5Y cells, MTS assay; assay type: cell-based; details: clozapine 20 μg/ml, 24 hours, FIG. 1
From the text: Clozapine, a widely used anti psychotic drug may be associated with increased cell mortality. It was not known, however, whether NAP ([…], SEQ ID NO:2) treatment would inhibit clozapine associated neuronal death. To address this question and validate the efficiency of using a NAP-clozapine combination drug candidate, an experimental test system in cell culture was established (Heiser et al., Journal of Psychopharmacology 21(8):851-856 (2007)). Human SH-SY5Y neuroblastoma supplemented with 15% fetal calf serum (FCS) (Beit-Haemek, Israel), 1% penicillin-streptomycin, and 1% glutamine were incubated in a 5% CO2 atmosphere. Thirty-six thousand cells/well (in a 96 well plates) were plated 24 hours prior to the clozapine or NAP treatment. Clozapine (CLZ) was obtained from Sigma Chemicals (Sigma, Israel). Thirty-six thousand cells per well (in at least 6 replicate wells) were exposed to clozapine (CLZ, 20 μg/ml) or clozapine (CLZ, 20 μg/ml)+NAP or NAP alone (10^−15M-10^−10 M) for 24 hours at 37° C. Drug and control solutions were dissolved in ethanol. Measurement of metabolic activity and survival was determined by non-radioactive cell proliferation assay (MTS) (Promega, USA) and evaluated by an ELISA-reader at 490 nm wavelength.

[2] = test system: STOP+/− male mice; assay: Mortality under chronic clozapine with or without intranasal NAP; assay type: in vivo, mouse; details: clozapine 10 mg/kg IP daily, n=4
Protocol: STOP+/− male mice (6 months old in average, n=4) received daily doses of 10 mg/kg intraperitoneal injection (IP) of clozapine (5 days a week), for the duration of the experiment (5 weeks). Clozapine (10 mg/kg) was solubilized under acidic conditions (pH ˜2.0 with HCl), and the solutions titrated back to ˜pH 7.4 with NaOH. In addition, these mice received daily intranasal vehicle solution that included the following ingredients (per milliliter): 7.5 mg of NaCl, 1.7 mg of citric acid monohydrate, 3 mg of disodium phosphate dihydrate, and 0.2 mg of benzalkonium chloride solution (50%) (Alcalay et al., Neurosci Lett 361, 128-131, 2004).
A combination of clozapine with NAP experiment included an additional four mice (6 months old in average) that were injected with clozapine and administered with NAP intranasally in the vehicle delineated above (Alcalay et al., Neurosci Lett 361, 128-131, 2004). NAP or vehicle solution was administered daily to mice hand-held in a semi-supine position with nostrils facing the investigator. A pipette tip was used to administer 2.5 μl/nostril. The mouse was hand-held until the solution was totally absorbed (˜10 s).
The experiment continued for 5 weeks.

[3] = test system: STOP−/− mice; details: STOP−/− schizophrenia model; cited from earlier work
[4] = test system: neurons of the central nervous system; details: in vitro assays and in vivo disease models; cited from earlier work
[5] = test system: MS; details: daily subcutaneous injections, 20 mg/injection; cited from earlier work

Compound: CN1CCN(C2=Nc3cc(Cl)ccc3Nc3ccccc32)CC1 [clozapine, Clozapine]
- cell death [1]: about 60%
- death ([2]; after 2.5 weeks of treatment): 50%
- death (cumulative) ([2]; at ~4.5 weeks): 75%

Compound: C/C1=C/C[C@@H](/C(C)=C/c2csc(C)n2)OC(=O)C[C@H](O)C(C)(C)C(=O)[C@H](C)[C@@H](O)[C@@H](C)CCC1 [epothilone D]
- synaptic function and behavior [3]: ameliorates synaptic function and behavior

Compound: SALLRSIPA
- survival of neurons in response to various insults [4]: keep neurons of the central nervous system alive

Compound: glatiramer acetate
- relapse rates, progression of disability, new MRI lesions [5]: reduce relapse rates, progression of disability, appearance of new lesions

From US20120010148A1, “COMBINATION THERAPIES USING NAP” (ALLON THERAPEUTICS INC., priority 2008, published 2012)
